Measurements: US8318664B2, “Unacylated ghrelin fragments as therapeutic agent in the treatment of obesity” (Alize Pharma SAS, priority 2007, dated 2012)
Entries after “also recorded” stand apart in the source; their conditions may differ. Non-standard residues stand in square brackets, D forms with d. No end group written: not given here.

Key:
[1] = test system: UAG receptor on HIT-T15 pancreatic β-cells; test: Competition with [125I-Tyr4]-UAG for binding sites on HIT-T15 membranes; design: species or system hamster
Description: (§1) The ability of the fragment UAG (6-13) to compete in a concentration-dependent manner with [^125I-Tyr^4]-UAG for HIT-T15 (FIG. 10A) and INS-1E (FIG. 10B) binding sites was assayed. As shown in FIGS. 10A and 10B, unlabelled UAG (1-28) and UAG (6-13) competed with a similar efficacy and in a concentration-dependent fashion with [^125I-Tyr^4]-UAG for such binding sites in both cell lines.
(§2) Membranes from hamster HIT-T15 and rat INS-1E pancreatic β-cells were prepared and assayed for the presence of [^125I-Tyr^4]-UAG binding. The ability of UAG fragments to compete with the radioligand for such binding sites has been evaluated as previously described (Ref. 4). Data are presented as mean±S.E.M. of three independent experiments.

[2] = test system: UAG receptor on INS-1E pancreatic β-cells; test: Competition with [125I-Tyr4]-UAG for binding sites on INS-1E membranes; design: species or system rat
Description: as §1, §2

[3] = test system: hamster HIT-T15 β-cells; test: MTT cell survival assay in HIT-T15 β-cells; assay type: cell-based
Description: MTT experiments were also performed in hamster HIT-T15 β-cells, to test the survival effect of UAG (1-28) or its fragments UAG (1-14), UAG (1-18), UAG (1-5) and UAG (17-28) in serum deprived medium, either alone or with IFN-γ/TNF-α/IL-1β. As for the experiments performed on INS-1E β-cells, the peptides were tested at increasing concentrations, ranging from 0.1 nM to 100 nM.
The survival effect of UAG (6-13), UAG (8-13), UAG (8-12), UAG (8-11), UAG (9-12) and UAG (9-11) was assessed in cytokine-treated HIT-T15 β-cells.
The protective effects of peptides UAG (8-13) and UAG (8-12) were found similar to those of UAG (1-14) and UAG (1-18). A peptide made of the inverse sequence of UAG (1-14) and named UAG (14-1), was used as negative control for these experiments (FIG. 5A). […] These effects were however lower than those of UAG (6-13) (FIG. 5B).
UAG fragments with alanine (Ala) substitutions at different amino acid positions (6 to 13) were tested with regards to their survival effects in HIT-T15 hamster β-cells. The cells were cultured in serum deprived medium, either alone or with IFN-γ/TNF-α/IL-1β. The peptides were tested at the concentrations of 1 nM to 100 nM. […] Under treatment with cytokines, where cell survival was reduced by ≈18% with respect to serum starved conditions, all Ala substitutions, except those at positions 10 and 11, completely reversed cell death and brought the survival rate to levels that were even higher than those under serum-free conditions, at both 1 nM and 100 nM concentrations. These effects were similar to those elicited by the original peptide UAG (6-13) (FIG. 11B).
Particularly, the best effect was exerted by Gly 6-UAG (6-13), whereas the lowest was seen using AcSer 6-UAG (6-13), AcSer 6-(D)Pro 7-UAG (6-13) (FIG. 12B).
(§3) Hamster HIT-T15 insulin-secreting β-cells were obtained and cultured as described (Refs. 14, 4). INS-1E rat β-cells were kindly provided by Prof. Claes B. Wollheim (University Medical Center, Geneva, Switzerland) and cultured as described (Refs. 14, 4). Cell culture reagents were from Invitrogen (Milano, Italy). Cytokines were from Biosource (Invitrogen, Italy).
(§4) Cell survival was assessed by 3-[4,5-dimethylthiazol-2-yl]-2,5diphenyltetrazolium bromide (MTT) as described previously (Ref. 4). Cells were seeded on 96-well plates at a density of 5×10^3 cells/well. After treatments, cells were incubated with 1 mg/ml MTT for ≈1 h. The medium was aspirated, and the formazan product solubilized with 100 μl DMSO. Viability was assessed by spectrophotometry at 570 nm absorbance using a 96-well plate reader.

[4] = test system: C57BL/6J male mice on high fat diet; test: High fat diet (HFD) pre-diabetic/onset obesity model in C57BL/6J mice; assay type: in vivo, mouse
Description: In order to assess the effects of UAG and cyclic UAG (6-13) on the metabolic responses to a high fat diet, ten (10) week old C57BL/6J male mice were allowed to acclimatize in the animal facility for 1 week. The mice were fed a standard chow (also referred herein as “normal diet” or “ND”, 9% kcal fat) and were maintained in 12 hour:12 hour light:dark conditions at 21° C. (FIG. 17).
At 11 weeks, the mice were separated into 2 different streams (n=10): the first stream consisted in 4 weeks of normal diet and the second stream consisted in 2 weeks of normal diet followed by 2 weeks of high fat diet (also referred herein as “HFD”, 41% kcal fat) with Intraperitoneal Glucose Tolerance Testing (IPGTT) (also referred herein as “IPGTT”) and Intraperitoneal Insuline Tolerance Testing (also referred herein as “IPITT”). Baseline 24 h food intake and IPGTTs were run before pump implantation (FIG. 17).
Alzet 1004 micro-osmotic pumps containing saline, UAG or cyclic UAG (6-13) were implanted at week 0 of the procedure depicted in FIG. 17 in the mice of the two streams (sc., interscapular) under isoflurane anesthesia and peri-operative carprofen analgesia (5 mg/kg sc.). UAG or cyclic UAG (6-13) peptides were infused at 4 nmol/kg/hr.
Body weight and 24 h food intake were measured weekly for 4 weeks and IPGTTs were performed bi-weekly for 4 weeks. […] The suppression in body weight gain observed in peptide-treated mice can therefore not be explained by a reduced food intake.
GTTs were performed following a 6 h fast starting at 8 am, then ˜100 μl of blood was collected from the tail vein (t=0) for measurement of insulin under fasting conditions (no anesthesia). Mice were injected ip. with 2 g/kg glucose in saline solution. Glucose was then measured using a glucometer using ˜0.5 μl of tail vein blood at t=0, 15, 30, 45, 60 and 120 minutes. During the GTT at wk 4 samples of ˜25 μl of tail vein blood were also collected at 15, 30 and 120 minutes for insulin determination.
The day after the final IPGTT, mice were fasted for 4 h starting at 8 am, then injected with human insulin (Actrapid, Novo Nordisk) at 0.5 IU/kg. Glucose in tail vein blood (˜0.5 μl) was measured with a glucometer at t=0, 15, 30, 45, 60 and 120 minutes (no anesthesia).
Tail vein blood glucose was measured by glucometer biweekly from free-fed mice in the non-IPGTT experimental streams (no anesthesia).

[5] = test system: INS-1E rat β-cells; test: MTT cell survival assay in INS-1E β-cells; assay type: cell-based; conditions: 0.1 nM to 100 nM
Description: The peptides were tested at increasing concentrations, ranging from 0.1 nM to 100 nM.
as §3, §4

[6] = test system: human pancreatic islets; test: MTT cell survival assay in human pancreatic islets; assay type: cell-based; conditions: human islet cells, 1 nM to 100 nM
Description: The survival effect of UAG (1-14), UAG (1-18), UAG (1-5) and UAG (17-28), with respect to that of full length UAG (1-28), was assessed in human pancreatic islets by MTT. The peptides were tested in islet cells cultured in serum deprived medium, either alone or with IFN-γ/TNF-α/IL-1β (5 ng/ml each).
Human islets were obtained from pancreases of multiorgan donors as described (Ref. 4). Islet preparations with purity >70%, not suitable for transplantation, were provided by European Consortium for Islet Transplantation (ECIT) “Islets for Research Distribution Program,” Transplant Unit, Scientific Institute San Raffaele, Vita-Salute University, Milan. Islets (10,000) were cultured in CMRL (Invitrogen) with 10% FBS.
as §4

[7] = test system: HIT-T15 β-cells; test: Cytokine-induced apoptosis in HIT-T15 β-cells; assay type: cell-based, hamster; conditions: 24 h serum-free medium with IFN-γ/TNF-α/IL-1β, 1, 10, 100 nM
Description: HIT-T15 β-cells were cultured for 24 h in serum-free medium, either alone or with IFN-γ/TNF-α/IL-1β. In both cell lines, apoptosis increased under cytokine treatment, with respect to serum starvation alone. […] UAG (14-1), the inverse sequence of UAG (1-14), was used as negative control, whereas UAG (1-28), was used as positive control in each experiment.

[8] = serum deprived medium with IFN-γ/TNF-α/IL-1β
[9] = serum deprived medium with IFN-γ/TNF-α/IL-1β (5 ng/ml each)

Substance: UAG (1-13): fragment named only in b101 as binding to the UAG receptor; possibly a misprint (GSSFLSPEHQRVQ)
- binding to the UAG receptor [1]: recognized and bound
- binding to the UAG receptor [2]: recognized and bound

Substance: Ac-Ser-pro-Glu-His-Gln-Arg-Val-Gln-NH2 (Ac-S[dP]EHQRVQ-NH2; listed as Homo sapiens) [AcSer 6-(D)Pro 7-UAG (6-13)]
- cell survival (MTT) [3, 8]: lowest

Substance: Ser-Pro-Glu-His-Gln-Arg-Val-Gln (cyclic) (SPEHQRVQ; cyclic; (1)..(8) Cyclic; listed as Homo sapiens) [cyclic UAG (6-13)]
- body weight gain ([4]; HFD, 4 nmol/kg/hr sc. infusion, compared to saline-HFD): suppressed body weight gain
- glucose levels in fasting or fed state ([4]; HFD, pre-diabetic, normoglycemic conditions): does not significantly affect glucose levels
- HFD-induced insulin resistance (insulin tolerance test, area above the glucose curve) ([4]; IPITT, HFD): restores insulin resistance to a level that is comparable to ND control
- HFD-induced glucose intolerance (IPGTT) ([4]; after 2 weeks on the HFD): prevents glucose intolerance
- reduction of eWAT normalized for body weight ([4]; at 4 weeks, HFD): about 28%
- weight of epididymal white adipose tissue (eWAT) ([4]; at 4 weeks, HFD): lower than that of the control mice fed on the HFD

Substance: His-Gln-Arg-Val (HQRV; listed as Homo sapiens) [UAG (9-12)]
- cell survival (MTT) [3, 8]: significantly increased cell survival at both the concentrations tested

Substance: His-Gln-Arg [UAG (9-11)]
- cell survival (MTT) [3, 8]: no significant effect at both concentrations tested

Substance: ESKKPPAKLQPR [UAG (17-28)]
- cell survival (MTT) ([5]; serum deprived medium alone): reduced, although significant, survival action; also recorded: only a trivial effect
- cell survival (MTT) [5, 8]: reduced effect; also recorded: only a trivial effect
- cell survival (MTT) ([6]; serum deprived medium alone): significantly increased survival of islet cells
- cell survival (MTT) [6, 9]: had no effect
- cell survival (MTT) ([3]; serum deprived medium alone): no significant effect; also recorded: very little effect
- cell survival (MTT) [3, 8]: no significant effect; also recorded: very little effect

Substance: EHQRVQ [UAG (8-13)]
- antiapoptotic effect (cytokine-induced apoptosis) [7]: significantly inhibited apoptosis at 10 and 100 nM; also recorded: strongest antiapoptotic effect
- cell survival (MTT) [3, 8]: significant protective effect at all the concentrations examined; also recorded: strongly effective in increasing survival

Substance: Glu-His-Gln-Arg-Val (EHQRV; listed as Homo Sapiens) [UAG (8-12)]
- antiapoptotic effect (cytokine-induced apoptosis) [7]: some protective effect only at 100 nM; also recorded: strongest antiapoptotic effect
- cell survival (MTT) [3, 8]: strongly effective in increasing survival

Substance: Ac-Ser-Pro-Glu-His-Gln-Arg-Val-Gln-NH2 (Ac-SPEHQRVQ-NH2; listed as Homo sapiens) [AcSer 6-UAG (6-13)]
- cell survival (MTT) [3, 8]: lowest

Substance: Gly-Pro-Glu-His-Gln-Arg-Val-Gln-NH2 (GPEHQRVQ-NH2; listed as Homo sapiens) [Gly 6-UAG (6-13)]
- cell survival (MTT) [3, 8]: best effect

Substance: Glu-His-Gln-Arg (EHQR; listed as Homo sapiens) [UAG (8-11)]
- cell survival (MTT) [3, 8]: significant survival effect only at 100 nM

Substance: Gly-Ser-Ser-Phe-Leu (GSSFL; listed as Homo sapiens) [UAG (1-5)]
- cell survival (MTT) ([5]; serum deprived medium alone): reduced, although significant, survival action; also recorded: only a trivial effect
- cell survival (MTT) [5, 8]: reduced effect; also recorded: only a trivial effect
- cell survival (MTT) ([6]; serum deprived medium alone): little, although significant survival action at 10 nM
- cell survival (MTT) [6, 9]: no cell protection
- cell survival (MTT) ([3]; serum deprived medium alone): very little effect
- cell survival (MTT) [3, 8]: slightly increased cell survival; also recorded: very little effect
